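Following 48 hours of exposure in 96-well plates, responses at five concentrations were used to interpolate endpoints linearly. Abbreviation: GI50, concentration required for 50% inhibition of growth. TGI denotes the concentration required for complete inhibition of growth.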
Key:
Test in all cases: NCI-60 cell line screen, 48 h
HL-60(TB) leukemia = test system: HL-60(TB) leukemia
HOP-92 NSCLC = test system: HOP-92 NSCLC
HS 578T breast = test system: HS 578T breast
M14 melanoma = test system: M14 melanoma
MDA-MB-231 breast = test system: MDA-MB-231 breast
NCI-H226 lung = test system: NCI-H226 lung
NCI/ADR-RES ovarian = test system: NCI/ADR-RES ovarian
OVCAR-8 ovarian = test system: OVCAR-8 ovarian
TK-10 renal = test system: TK-10 renal
NCI-H522 lung = test system: NCI-H522 lung

Question: Which results are given for COc1cc(CNC(=S)CCCCCCCCCCC(C)C)ccc1O?
Answer: TGI (HL-60(TB) leukemia): 70.2 µM; TGI (HOP-92 NSCLC): 68 µM; TGI (HS 578T breast): 83.7 µM; TGI (M14 melanoma): > 100 µM; TGI (MDA-MB-231 breast): > 100 µM; TGI (NCI-H226 lung): 86.3 µM; TGI (NCI/ADR-RES ovarian): > 100 µM; TGI (OVCAR-8 ovarian): > 100 µM; TGI (TK-10 renal): > 100 µM

Question: Which results are given for CCOC(=O)CCC(NC(=O)OCc1ccccc1)C(=O)NC(CCC(=O)OCC)C(=O)NC(CCC(=O)OCC)C(=O)NNC(=O)OC(C)(C)C (stereo not given)?
Answer: TGI (HL-60(TB) leukemia): > 100 µM; TGI (HOP-92 NSCLC): > 100 µM; TGI (HS 578T breast): > 100 µM; TGI (M14 melanoma): > 100 µM; TGI (MDA-MB-231 breast): > 100 µM; TGI (NCI-H226 lung): > 100 µM; TGI (OVCAR-8 ovarian): > 100 µM; TGI (TK-10 renal): > 100 µM

Question: For CC(C)(Cc1ccccc1)N1C(=O)N1C(C)(C)Cc1ccccc1, which TGI (HL-60(TB) leukemia) is on record?
Answer: 41.7 µM

Question: And the TGI (HS 578T breast)?
Answer: > 100 µM

Question: What about the TGI (M14 melanoma) of the same compound?
Answer: > 100 µM

Question: And the TGI (MDA-MB-231 breast)?
Answer: > 100 µM

Question: What about the TGI (NCI-H226 lung) of the same compound?
Answer: 46 µM

Question: What about the TGI (NCI-H522 lung) of the same compound?
Answer: 60.6 µM

Question: And the TGI (NCI/ADR-RES ovarian)?
Answer: > 100 µM

Question: And the TGI (OVCAR-8 ovarian)?
Answer: > 100 µM

Question: And the TGI (TK-10 renal)?
Answer: > 100 µM

Question: With CCN(CC)/[N+]([O-])=N/O as the compound, how does the TGI (HL-60(TB) leukemia) read?
Answer: > 100 µM

Question: What about the TGI (HOP-92 NSCLC) of the same compound?
Answer: > 100 µM

Question: What about the TGI (M14 melanoma) of the same compound?
Answer: > 100 µM

Question: And the TGI (NCI-H226 lung)?
Answer: > 100 µM

Question: What about the TGI (NCI-H522 lung) of the same compound?
Answer: > 100 µM

Question: What about the TGI (OVCAR-8 ovarian) of the same compound?
Answer: > 100 µM

Question: What about the TGI (TK-10 renal) of the same compound?
Answer: > 100 µM

Question: Which TGI (HL-60(TB) leukemia) does the source give for CCN(CCCl)c1cccc(NC(=O)c2ccc(C(=O)Nc3cccc(CN(C)C)c3)cc2)c1 here?
Answer: 12.7 µM

Question: And the TGI (HOP-92 NSCLC)?
Answer: 1.6 µM

Question: What about the TGI (HS 578T breast) of the same compound?
Answer: 0.399 µM

Question: What about the TGI (M14 melanoma) of the same compound?
Answer: 0.86 µM

Question: What about the TGI (NCI-H522 lung) of the same compound?
Answer: 0.0342 µM

Question: And the TGI (NCI/ADR-RES ovarian)?
Answer: > 100 µM

Question: What about the TGI (OVCAR-8 ovarian) of the same compound?
Answer: 1.35 µM

Question: What about the TGI (TK-10 renal) of the same compound?
Answer: 0.779 µM

Question: For CC(C#N)N(CCc1ccccc1)C(=O)c1ccccc1 (stereo not given), which TGI (HL-60(TB) leukemia) is on record?
Answer: > 100 µM

Question: What about the TGI (HS 578T breast) of the same compound?
Answer: > 100 µM

Question: What about the TGI (M14 melanoma) of the same compound?
Answer: > 100 µM

Question: What about the TGI (MDA-MB-231 breast) of the same compound?
Answer: > 100 µM

Question: What about the TGI (NCI-H226 lung) of the same compound?
Answer: > 100 µM

Question: What about the TGI (NCI-H522 lung) of the same compound?
Answer: > 100 µM

Question: What about the TGI (NCI/ADR-RES ovarian) of the same compound?
Answer: > 100 µM

Question: And the TGI (OVCAR-8 ovarian)?
Answer: > 100 µM

Question: What about the TGI (TK-10 renal) of the same compound?
Answer: > 100 µM

Question: Which results are given for NNC(=O)Cn1ccnn1?
Answer: TGI (HL-60(TB) leukemia): > 100 µM; TGI (HOP-92 NSCLC): > 100 µM; TGI (M14 melanoma): > 100 µM; TGI (MDA-MB-231 breast): > 100 µM; TGI (NCI-H522 lung): > 100 µM; TGI (NCI/ADR-RES ovarian): > 100 µM; TGI (OVCAR-8 ovarian): > 100 µM; TGI (TK-10 renal): > 100 µM

Question: COc1cccc(NC(=O)CC(=O)N2N=C(C)C(N=Nc3ccc(C(=O)O)cc3)C2=O)c1 (stereo not given) was tested. Which TGI (HL-60(TB) leukemia) did it give?
Answer: > 100 µM

Question: What about the TGI (HS 578T breast) of the same compound?
Answer: > 100 µM

Question: And the TGI (M14 melanoma)?
Answer: > 100 µM

Question: And the TGI (MDA-MB-231 breast)?
Answer: > 100 µM

Question: What about the TGI (NCI-H522 lung) of the same compound?
Answer: > 100 µM

Question: And the TGI (NCI/ADR-RES ovarian)?
Answer: > 100 µM

Question: And the TGI (OVCAR-8 ovarian)?
Answer: > 100 µM

Question: And the TGI (TK-10 renal)?
Answer: > 100 µM

Question: For C=C(C)[C@@H]1CC[C@]2(CO)CC[C@]3(C)[C@H](CC[C@@H]4[C@@](C)(CCCN)[C@H](C(=C)C)CC[C@]43C)[C@@H]12, which GI50 (HL-60(TB) leukemia) is on record?
Answer: 1.78 µM

Question: And the TGI (HL-60(TB) leukemia)?
Answer: 3.61 µM

Question: And the GI50 (HOP-92 NSCLC)?
Answer: 1.38 µM

Question: What about the TGI (HOP-92 NSCLC) of the same compound?
Answer: 2.82 µM

Question: What about the GI50 (MDA-MB-231 breast) of the same compound?
Answer: 1.75 µM

Question: What about the TGI (MDA-MB-231 breast) of the same compound?
Answer: 3.19 µM

Question: And the GI50 (TK-10 renal)?
Answer: 1.77 µM

Question: What about the TGI (TK-10 renal) of the same compound?
Answer: 3.39 µM

Question: CC(=O)O[C@H]1CCC2[C@@H]3CCC4NC(=O)C(C#N)C[C@]4(C)C3CC[C@@]21C (stereo not given in full) was tested. Which TGI (HL-60(TB) leukemia) did it give?
Answer: > 10 µM

Question: What about the TGI (HOP-92 NSCLC) of the same compound?
Answer: > 10 µM

Question: And the TGI (HS 578T breast)?
Answer: > 10 µM

Question: And the TGI (M14 melanoma)?
Answer: > 10 µM

Question: What about the TGI (MDA-MB-231 breast) of the same compound?
Answer: > 10 µM

Question: What about the TGI (NCI-H226 lung) of the same compound?
Answer: > 10 µM

Question: What about the TGI (NCI/ADR-RES ovarian) of the same compound?
Answer: > 10 µM

Question: What about the TGI (OVCAR-8 ovarian) of the same compound?
Answer: > 10 µM

Question: And the TGI (TK-10 renal)?
Answer: > 10 µM

Question: For Cc1c(C#N)c(=N)oc2ccccc12, which TGI (HL-60(TB) leukemia) is on record?
Answer: > 100 µM

Question: What about the TGI (HOP-92 NSCLC) of the same compound?
Answer: > 100 µM

Question: What about the TGI (HS 578T breast) of the same compound?
Answer: > 100 µM

Question: What about the TGI (M14 melanoma) of the same compound?
Answer: > 100 µM

Question: What about the TGI (MDA-MB-231 breast) of the same compound?
Answer: > 100 µM

Question: What about the TGI (NCI-H226 lung) of the same compound?
Answer: > 100 µM

Question: And the TGI (NCI/ADR-RES ovarian)?
Answer: > 100 µM

Question: What about the TGI (OVCAR-8 ovarian) of the same compound?
Answer: > 100 µM

Question: And the TGI (TK-10 renal)?
Answer: > 100 µM

Question: Which results are given for C[PH+](c1nc2ccccc2nc1[PH+](C)C(C)(C)C)C(C)(C)C.C[PH+](c1nc2ccccc2nc1[PH+](C)C(C)(C)C)C(C)(C)C.[Au+].[Cl-] (stereo not given)?
Answer: GI50 (HL-60(TB) leukemia): 0.07 µM; TGI (HL-60(TB) leukemia): 1.02 µM; GI50 (HOP-92 NSCLC): 0.0225 µM; TGI (HOP-92 NSCLC): 0.0681 µM; GI50 (HS 578T breast): 0.0447 µM; TGI (HS 578T breast): 1.75 µM; GI50 (M14 melanoma): 0.0386 µM; TGI (M14 melanoma): 0.31 µM; GI50 (NCI-H226 lung): 0.0539 µM; TGI (NCI-H226 lung): 2.44 µM; GI50 (OVCAR-8 ovarian): 0.0358 µM; TGI (OVCAR-8 ovarian): 1.88 µM; GI50 (TK-10 renal): 0.0431 µM; TGI (TK-10 renal): 1.13 µM

Question: How did the TGI (HS 578T breast) turn out when COc1cc2oc(=O)cc(C)c2cc1OC was run?
Answer: > 100 µM

Question: What about the TGI (M14 melanoma) of the same compound?
Answer: > 100 µM

Question: What about the TGI (MDA-MB-231 breast) of the same compound?
Answer: > 100 µM

Question: What about the TGI (NCI-H226 lung) of the same compound?
Answer: > 100 µM

Question: What about the TGI (NCI/ADR-RES ovarian) of the same compound?
Answer: > 100 µM

Question: And the TGI (OVCAR-8 ovarian)?
Answer: > 100 µM

Question: And the TGI (TK-10 renal)?
Answer: > 100 µM

Question: For COc1cccc(C23CCCC(C2)N(C)CC3OC(=O)c2ccccc2)c1OC (stereo not given), which TGI (HL-60(TB) leukemia) is on record?
Answer: 28.3 µM

Question: And the TGI (HS 578T breast)?
Answer: 78.6 µM

Question: What about the TGI (M14 melanoma) of the same compound?
Answer: 29.6 µM

Question: What about the TGI (NCI-H522 lung) of the same compound?
Answer: 67.6 µM

Question: And the TGI (NCI/ADR-RES ovarian)?
Answer: 67.1 µM

Question: What about the TGI (OVCAR-8 ovarian) of the same compound?
Answer: 38.7 µM

Question: Which TGI (HOP-92 NSCLC) does the source give for N#Cc1c(N2CCN(c3ccc([N+](=O)[O-])cc3)CC2)[n+](=O)c2ccc(-c3ccc([N+](=O)[O-])cc3)cc2n1[O-] here?
Answer: > 83.9 µM

Question: What about the TGI (HS 578T breast) of the same compound?
Answer: > 100 µM

Question: And the TGI (M14 melanoma)?
Answer: > 58.9 µM

Question: What about the TGI (MDA-MB-231 breast) of the same compound?
Answer: > 48.6 µM

Question: What about the TGI (NCI-H226 lung) of the same compound?
Answer: > 100 µM

Question: What about the TGI (NCI-H522 lung) of the same compound?
Answer: > 100 µM

Question: What about the TGI (NCI/ADR-RES ovarian) of the same compound?
Answer: > 100 µM

Question: What about the TGI (OVCAR-8 ovarian) of the same compound?
Answer: > 100 µM

Question: What about the TGI (TK-10 renal) of the same compound?
Answer: > 100 µM

Question: With COc1cc(S(=O)(=O)Nc2ccc(-c3csc(/N=C\c4ccccc4)n3)cc2)ccc1Cl as the compound, how does the TGI (HL-60(TB) leukemia) read?
Answer: > 100 µM

Question: And the TGI (HOP-92 NSCLC)?
Answer: > 100 µM

Question: What about the TGI (HS 578T breast) of the same compound?
Answer: > 100 µM

Question: What about the TGI (M14 melanoma) of the same compound?
Answer: > 100 µM

Question: What about the TGI (MDA-MB-231 breast) of the same compound?
Answer: > 100 µM

Question: And the TGI (NCI-H226 lung)?
Answer: > 100 µM

Question: And the TGI (NCI-H522 lung)?
Answer: > 100 µM

Question: What about the TGI (NCI/ADR-RES ovarian) of the same compound?
Answer: > 100 µM

Question: And the TGI (OVCAR-8 ovarian)?
Answer: > 100 µM

Question: Which results are given for N#C/C(=C1/c2cc([N+](=O)[O-])ccc2-c2c1cc([N+](=O)[O-])cc2[N+](=O)[O-])N1CCCCC1?
Answer: TGI (HS 578T breast): > 100 µM; TGI (M14 melanoma): > 100 µM; TGI (MDA-MB-231 breast): > 100 µM; TGI (NCI-H226 lung): > 100 µM; TGI (NCI-H522 lung): > 100 µM; TGI (NCI/ADR-RES ovarian): > 100 µM; TGI (OVCAR-8 ovarian): > 100 µM; TGI (TK-10 renal): > 100 µM

From PubChem BioAssay (NCI)
